One test concerns D4 receptor. The test is described as follows: D4 receptor binding (3H-YM 09151-2 displacement). As to conditions: for D4: Table 2, compounds of U.S. Pat. No. 5,093,333 (Saab), parameter and unit not given; for Ki: Table 1, 0.5 nM 3H-YM 09151-2, COS cells with recombinant receptor. On the set-up: species or system African Green monkey. The method, then: (§1) Pellets of COS cells containing recombinantly produced D2 or D4 receptors from African Green monkey were used for the assays. The sample is homogenized in 100 volumes (w/vol) of 0.05 M Tris HCl buffer at 4° C. and pH 7.4. The sample is then centrifuged at 30,000×g and resuspended and rehomogenized. The sample is then centrifuged as described and the final tissue sample is frozen until use. The tissue is resuspended 1:20 (wt/vol) in 0.05 M Tris HCl buffer containing 100 mM NaCl.
(§2) Incubations are carried out at […] and contain 0.4 ml of tissue sample, 0.5 nM ^3 H-YM 09151-2 and the compound of interest in a total incubation of 1.0 ml. Nonspecific binding is defined as that binding found in the presence of […]; without further additions nonspecific binding is less than 20% of total binding. Binding characteristics of various compounds of the invention for D2 and D4 receptor subtypes are shown in Table 1 for […].

Another test concerns M1 Muscarinic subtype. Nature of the test: M1 muscarinic subtype assay essentially as in U.S. Pat. No. 5,093,333. It is filed as binding. The method, then: (§3) Various compounds of the invention were also evaluated in M1 and M2 Muscarinic subtype assays essentially as set forth in U.S. Pat. No. 5,093,333.
The test system of a further test is M2 Muscarinic subtype. The test is described as follows: M2 muscarinic subtype assay essentially as in U.S. Pat. No. 5,093,333. In kind it is binding. The method, then: as §3
For a further test, the target named is T1, D2 receptor (Chlorocebus aethiops, UniProt P52702).
T1 construct: expressed in transfected cells; host or cells: COS cells
T1 sequence (P52702 whole entry): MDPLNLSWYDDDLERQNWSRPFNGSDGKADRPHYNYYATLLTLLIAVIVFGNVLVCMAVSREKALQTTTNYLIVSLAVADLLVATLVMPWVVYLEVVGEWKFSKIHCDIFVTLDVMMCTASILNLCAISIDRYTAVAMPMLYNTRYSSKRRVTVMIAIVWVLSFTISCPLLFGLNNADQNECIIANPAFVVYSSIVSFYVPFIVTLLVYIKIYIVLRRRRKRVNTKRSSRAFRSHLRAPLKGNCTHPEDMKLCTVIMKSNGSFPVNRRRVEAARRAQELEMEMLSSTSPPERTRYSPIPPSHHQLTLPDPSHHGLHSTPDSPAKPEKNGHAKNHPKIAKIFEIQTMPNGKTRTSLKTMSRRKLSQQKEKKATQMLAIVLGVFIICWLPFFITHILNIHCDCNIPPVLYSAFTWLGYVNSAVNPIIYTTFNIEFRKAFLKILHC
Nature of the test: D2 receptor binding (3H-YM 09151-2 displacement). On the set-up: species or system African Green monkey. The note with it: Table 1; 0.5 nM 3H-YM 09151-2, COS cells with recombinant receptor. The protocol: as §1, §2

Setting [1] is: Table 2, compounds of U.S. Pat. No. 5,093,333 (Saab), parameter and unit not given.

Bounds are passed on as bounds.

What is called Ki is a measure of affinity in units of concentration, obtained from inhibition or displacement.

In the test on D4 receptor, `Cc1cc(NCCCN2CCOCC2)nc2ccccc12` returned a D4 of more than 1000. The molecule also registered an M1 in the test on M1 Muscarinic subtype (setting [1]) of 1200. This molecule also yielded an M2 in the test on M2 Muscarinic subtype (setting [1]) of 2500.
Regarding `c1ccc(N2CCN(CCNC3=Nc4ccccc4CC3)CC2)nc1` [Compound 2, 2-3,4-dihdroquinolyl(2-(4-(2-pyridyl)piperazinyl)ethyl)amine], the Ki on D4 receptor was determined as 30 nM.
In the case of `Fc1cnc(N2CCN(CCNC3=Nc4ccccc4CC3)CC2)nc1` [Compound 3, 2-3,4-dihydroquinoly(2-(4-(5-fluoropyrimidin-2-yl)piperazinyl)ethyl)amine], the Ki on D4 receptor was found to be 8 nM. For the same molecule, the “M1” value with M1 Muscarinic subtype (Table 1, parameter not stated) was found to be 128 nM. Further, the “M2” value with M2 Muscarinic subtype (Table 1, parameter not stated) came out at 144 nM.
Consider `Cc1cccc(N2CCN(CCCNc3ccc4ccccc4n3)CC2)c1C` [Compound 21, (3-(4-(2,3-dimethylphenyl)piperazinyl)propyl)2-quinolylamine], for which the Ki on D2 receptor was more than 100 nM; at D4 receptor, 22 nM.
On to `Cc1cc(NCCCN2CCN(c3ncccn3)CC2)nc2ccccc12` [Compound 22, (4-methyl(2-quinolyl))(3-(4-(pyrimidin-2-yl)piperazinyl)propyl)amine], for which the Ki on D2 receptor was found to be 3300 nM; at D4 receptor, 10 nM.
`c1ccc2nc(NCCCN3CCOCC3)ccc2c1` [Saab Example 2]: the D4 with D4 receptor is more than 1000. Further, the M1 in the test on M1 Muscarinic subtype (setting [1]) came to 2500. In the test with M2 Muscarinic subtype (setting [1]), the M2 came out at 11600.
With `Cc1cc(NCCCN2CCN(C)CC2)nc2ccccc12` [Saab Example 3], in the test on D4 receptor, the D4 is listed as more than 1000. In the test with M1 Muscarinic subtype (setting [1]), this molecule yielded an M1 of 600. The molecule further had an M2 with M2 Muscarinic subtype (setting [1]) of 2800.
`Cc1cc(NCCCN2CCCC2=O)nc2ccccc12` [Saab Example 7]: in the test on D4 receptor, the D4 is on record as more than 1000. Also, the M1 with M1 Muscarinic subtype (setting [1]) was determined as 1300. Also, in the test with M2 Muscarinic subtype (setting [1]), the M2 was 20000.

These data come from patent US5972945A, “2-aminoalkylaminoquinolines; dopamine receptor subtype specific ligands” (Neurogen Corporation, priority 1998, dated 1999).
